In this test the target is MCH receptor (Homo sapiens, UniProt Q99705). The test can be described thus: Receptor binding assay with Radiolabelled MCH Ligand. Set-up: expressed in transfected cells; host or cells: 293 cells (human kidney, ATCC), transient transfection; crude membranes. The note with it: class by percent of control at 10^-7 M or IC50. The source says:
In addition to the methods described herein, another means for evaluating a test compound is by determining binding affinities to the MCH receptor. This type of assay generally requires a radiolabelled ligand to the MCH receptor. Absent the use of known ligands for the MCH receptor and radiolabels thereof, compounds of Formula (I) can be labelled with a radioisotope and used in an assay for evaluating the affinity of a test compound to the MCH receptor.
A radiolabelled MCH compound of Formula (I) can be used in a screening assay to identify/evaluate compounds. In general terms, a newly synthesized or identified compound (i.e., test compound) can be evaluated for its ability to reduce binding of the “radiolabelled compound of Formula (I)” to the MCH receptor. Accordingly, the ability to compete with the “radio-labelled compound of Formula (I)” or Radiolabelled MCH Ligand for the binding to the MCH receptor directly correlates to its binding affinity of the test compound to the MCH receptor.
293 cells (human kidney, ATCC), transiently transfected with 10 μg human MCH receptor and 60 μl Lipofectamine (per 15-cm dish), are grown in the dish for 24 hours (75% confluency) with a media change and removed with 10 mL/dish of Hepes-EDTA buffer (20 mM Hepes+10 mM EDTA, pH 7.4). The cells are then centrifuged in a Beckman Coulter centrifuge for 20 minutes, 17,000 rpm (JA-25.50 rotor). Subsequently, the pellet is resuspended in 20 mM Hepes+1 mM EDTA, pH 7.4 and homogenized with a 50-mL Dounce homogenizer and again centrifuged. After removing the supernatant, the pellets can be stored at −80° C., until used in binding assay. When used in the assay, membranes are thawed on ice for 20 minutes and then 10 mL of incubation buffer (20 mM Hepes, 1 mM MgCl2, 100 mM NaCl, pH 7.4) added. The membranes are then vortexed to resuspend the crude membrane pellet and homogenized with a Brinkmann PT-3100 Polytron homogenizer for 15 seconds at setting 6. The concentration of membrane protein is determined using the BRL Bradford protein assay.
For total binding, a total volume of 50 ul of appropriately diluted membranes (diluted in assay buffer containing 50 mM Tris HCl (pH 7.4), 1 mM MgCl2, and 1 mM EDTA; 5-50 ug protein) is added to 96-well polyproylene microtiter plates followed by addition of 100 μl of assay buffer and 50 μl of Radiolabelled MCH Ligand. For nonspecific binding, 50 μl of assay buffer is added instead of 100 μl and an additional 50 μl of 10 uM cold MCH is added before 50 μl of Radiolabelled MCH Ligand is added. Plates are then incubated at room temperature for 60-120 minutes. The binding reaction is terminated by filtering assay plates through a Microplate Devices GF/C Unifilter filtration plate with a Brandell 96-well plate harvester followed by washing with cold 50 mM Tris HCl, pH 7.4 containing 0.9% NaCl. Then, the bottom of the filtration plate are sealed, 50 ul of Optiphase Supermix is added to each well, the top of the plates are sealed, and plates are counted in a Trilux MicroBeta scintillation counter. For compound competition studies, instead of adding 100 μl of assay buffer, 100 μl of appropriately diluted test compound is added to appropriate wells followed by addition of 50 μl of Radiolabelled MCH Ligand.
The test compounds are initially assayed at 1 and 0.1 μM and then at a range of concentrations chosen such that the middle dose would cause about 50% inhibition of a Radiolabelled MCH Ligand binding (i.e., IC50). Specific binding in the absence of test compound (BO) is the difference of total binding (BT) minus non-specific binding (NSB) and similarly specific binding (in the presence of test compound) (B) is the difference of displacement binding (BD) minus non-specific binding (NSB). IC50 is determined from an inhibition response curve, logit-log plot of % B/BO vs. concentration of test compound.
Ki is calculated by the Cheng and Prustoff transformation: […]
Chain of MCH receptor (Q99705 whole entry): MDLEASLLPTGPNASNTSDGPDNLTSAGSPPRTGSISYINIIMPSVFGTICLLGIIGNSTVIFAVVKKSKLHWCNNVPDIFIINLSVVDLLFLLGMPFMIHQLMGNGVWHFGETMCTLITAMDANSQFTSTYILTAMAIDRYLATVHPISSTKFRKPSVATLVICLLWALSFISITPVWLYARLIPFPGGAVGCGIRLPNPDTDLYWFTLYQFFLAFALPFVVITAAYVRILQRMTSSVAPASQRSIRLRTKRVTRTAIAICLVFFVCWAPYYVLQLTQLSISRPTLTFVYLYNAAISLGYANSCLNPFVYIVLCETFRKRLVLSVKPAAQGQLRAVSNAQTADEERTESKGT
In the case of `Cc1nc(N[C@H]2CC[C@@H](NC(=O)CC3Cc4ccccc4C3)CC2)cc(N(C)C)n1` [compound 339], the class is given as 3 (Class 3: The value of percent of control at 10^−7 M was more than 60% or the value of IC50 was more than 200 nM.).

For the molecule `CCOc1ccccc1NC(=O)N[C@H]1CC[C@@H](Nc2cc(N(C)C)nc(C)n2)CC1` [compound 428], the class was 3 (Class 3: The value of percent of control at 10^−7 M was more than 60% or the value of IC50 was more than 200 nM.).

`Cc1nc(N[C@H]2CC[C@@H](NS(=O)(=O)c3cccc4ccccc34)CC2)cc(N(C)C)n1` [compound 505]: the class is given as 3 (Class 3: The value of percent of control at 10^−7 M was more than 60% or the value of IC50 was more than 200 nM.).

Take `Cc1cccc(NC(=O)c2ccccc2C(=O)N[C@H]2CC[C@@H](Nc3cc(N(C)C)nc(C)n3)CC2)c1` [compound 319]: the class is 3 (Class 3: The value of percent of control at 10^−7 M was more than 60% or the value of IC50 was more than 200 nM.).

In the case of `Cc1nc(N[C@H]2CC[C@@H](NCC3CCCC3)CC2)cc(N(C)C)n1` [compound 398], the class is 3 (Class 3: The value of percent of control at 10^−7 M was more than 60% or the value of IC50 was more than 200 nM.).

For `Cc1nc(N[C@H]2CC[C@@H](NCc3cccc4c3-c3ccccc3C4=O)CC2)cc(N(C)C)n1` [compound 392], the class is listed as 3 (Class 3: The value of percent of control at 10^−7 M was more than 60% or the value of IC50 was more than 200 nM.).

Consider `Cc1nc(N[C@H]2CC[C@@H](NCC3C[C@H]3c3ccccc3)CC2)cc(N(C)C)n1` (stereo partly shown) [compound 383], for which the class is on record as 3 (Class 3: The value of percent of control at 10^−7 M was more than 60% or the value of IC50 was more than 200 nM.).

On to `Cc1nc(N[C@H]2CC[C@@H](NCCc3ccccc3)CC2)cc(N(C)C)n1` [compound 382], for which the class is on record as 3 (Class 3: The value of percent of control at 10^−7 M was more than 60% or the value of IC50 was more than 200 nM.).

As to `Cc1nc(N[C@H]2CC[C@@H](NC(=O)Cc3ccccc3C(=O)Nc3ccc(C(C)C)cc3)CC2)cc(N(C)C)n1` [compound 296], the class is listed as 3 (Class 3: The value of percent of control at 10^−7 M was more than 60% or the value of IC50 was more than 200 nM.).

Consider `Cc1nc(N[C@H]2CC[C@@H](NC(=O)Oc3ccc4ccccc4c3)CC2)cc(N(C)C)n1` [compound 461], for which the class is 3 (Class 3: The value of percent of control at 10^−7 M was more than 60% or the value of IC50 was more than 200 nM.).

With `Cc1nc(N[C@H]2CC[C@@H](NC(=O)c3ccccc3COc3ccccc3)CC2)cc(N(C)C)n1` [compound 331, N-(cis-4-{[6-(dimethylamino)-2-methylpyrimidin-4-yl]amino}cyclohexyl)-[(2-phenyloxy)methyl]benzamide], the class is 3 (Class 3: The value of percent of control at 10^−7 M was more than 60% or the value of IC50 was more than 200 nM.).

With `CCCCCc1ccc(CN[C@H]2CC[C@@H](Nc3cc(N(C)C)nc(C)n3)CC2)cc1` [compound 397], the class is 3 (Class 3: The value of percent of control at 10^−7 M was more than 60% or the value of IC50 was more than 200 nM.).

`Cc1nc(N[C@H]2CC[C@@H](NS(=O)(=O)C(C)C)CC2)cc(N(C)C)n1` [compound 479]: the class is 3 (Class 3: The value of percent of control at 10^−7 M was more than 60% or the value of IC50 was more than 200 nM.).

For the molecule `Cc1nc(N[C@H]2CC[C@@H](NC(=O)Nc3c(Br)cc(C(C)C)cc3Br)CC2)cc(N(C)C)n1` [compound 423], the class is reported as 3 (Class 3: The value of percent of control at 10^−7 M was more than 60% or the value of IC50 was more than 200 nM.).

In the case of `Cc1nc(N[C@H]2CC[C@@H](NCc3ccc(F)c(Cl)c3)CC2)cc(N(C)C)n1` [compound 401], the class is recorded as 3 (Class 3: The value of percent of control at 10^−7 M was more than 60% or the value of IC50 was more than 200 nM.).

`Cc1nc(N[C@H]2CC[C@@H](NC(=O)CCCc3ccc([N+](=O)[O-])cc3)CC2)cc(N(C)C)n1` [compound 298]: the class was 3 (Class 3: The value of percent of control at 10^−7 M was more than 60% or the value of IC50 was more than 200 nM.).

Regarding `Cc1nc(N[C@H]2CC[C@@H](NCCOc3ccc(Cl)cc3)CC2)cc(N(C)C)n1` [compound 361], the class is 3 (Class 3: The value of percent of control at 10^−7 M was more than 60% or the value of IC50 was more than 200 nM.).

As to `Cc1nc(N[C@H]2CC[C@@H](NC(=O)[C@@H](C)c3cccc(C(=O)c4ccccc4)c3)CC2)cc(N(C)C)n1` [compound 309], the class is 3 (Class 3: The value of percent of control at 10^−7 M was more than 60% or the value of IC50 was more than 200 nM.).

Consider `Cc1nc(N[C@H]2CC[C@@H](NC(=O)CCc3ccccc3)CC2)cc(N(C)C)n1` [compound 258], for which the class is given as 3 (Class 3: The value of percent of control at 10^−7 M was more than 60% or the value of IC50 was more than 200 nM.).

As to `Cc1nc(N[C@H]2CC[C@@H](NC(=O)c3cccc4c(=O)c(C)c(-c5ccccc5)oc34)CC2)cc(N(C)C)n1` [compound 320], the class is 3 (Class 3: The value of percent of control at 10^−7 M was more than 60% or the value of IC50 was more than 200 nM.).

Take `CCOC(=O)c1c(S(=O)(=O)N[C@H]2CC[C@@H](Nc3cc(N(C)C)nc(C)n3)CC2)c(-c2ccccc2)n(-c2ccccc2)c1C` [compound 506]: the class is 3 (Class 3: The value of percent of control at 10^−7 M was more than 60% or the value of IC50 was more than 200 nM.).

In the case of `Cc1nc(N[C@H]2CC[C@@H](NCc3cccs3)CC2)cc(N(C)C)n1` [compound 388], the class was 3 (Class 3: The value of percent of control at 10^−7 M was more than 60% or the value of IC50 was more than 200 nM.).

As to `Cc1nc(N[C@H]2CC[C@@H](NC(=O)Oc3ccccc3)CC2)cc(N(C)C)n1` [compound 464, phenyl (cis-4-{[6-(dimethylamino)-2-methylpyrimidin-4-yl]amino}cyclohexyl)carbamate], the class was 3 (Class 3: The value of percent of control at 10^−7 M was more than 60% or the value of IC50 was more than 200 nM.).

Turning to `Cc1nc(N[C@H]2CC[C@@H](NC(=O)c3ccccc3-c3ccccc3)CC2)cc(N(C)C)n1` [compound 325], the class is recorded as 3 (Class 3: The value of percent of control at 10^−7 M was more than 60% or the value of IC50 was more than 200 nM.).

Take `Cc1nc(N[C@H]2CC[C@@H](NC(=O)c3ccc4ccccc4c3)CC2)cc(N(C)C)n1` [compound 231]: the class was 3 (Class 3: The value of percent of control at 10^−7 M was more than 60% or the value of IC50 was more than 200 nM.).

For `Cc1nc(N[C@H]2CC[C@@H](NC(=O)CN3C(=O)c4ccccc4C3=O)CC2)cc(N(C)C)n1` [compound 274], the class is listed as 3 (Class 3: The value of percent of control at 10^−7 M was more than 60% or the value of IC50 was more than 200 nM.).

Take `Cc1nc(N[C@H]2CC[C@@H](NC(=O)c3ccc4c(c3)C(=O)c3ccccc3-4)CC2)cc(N(C)C)n1` [compound 324]: the class is listed as 3 (Class 3: The value of percent of control at 10^−7 M was more than 60% or the value of IC50 was more than 200 nM.).

For `Cc1nc(N[C@H]2CC[C@@H](NC(=O)COc3ccc(C(C)(C)C)cc3)CC2)cc(N(C)C)n1` [compound 255], the class was 3 (Class 3: The value of percent of control at 10^−7 M was more than 60% or the value of IC50 was more than 200 nM.).

(Values after US20090036448A1, “PYRIMIDINE DERIVATIVES AND METHODS OF TREATMENT RELATED TO THE USE THEREOF” (TAISHO PHARMECUTICAL CO., LTD., priority 2004, published 2009).)
